Assays:
C-CBL (46-435) = molecular target: T1, C-CBL (46-435) (Homo sapiens, UniProt P22681); assay: Surface Plasmon Resonance (SPR) assay, binding affinity and kinetics, C-CBL; details: SPR at 10° C., biotinylated C-CBL (46-435) on streptavidin chip; geometric mean; read-out: C-CBL SPR Kd (nM) GMean
T1 construct: N-terminal biotinylated WT CBL-B (36-427) and C-CBL (46-435) were captured on a streptavidin (SA) coated sensor chip
T1 sequence (P22681 46-435): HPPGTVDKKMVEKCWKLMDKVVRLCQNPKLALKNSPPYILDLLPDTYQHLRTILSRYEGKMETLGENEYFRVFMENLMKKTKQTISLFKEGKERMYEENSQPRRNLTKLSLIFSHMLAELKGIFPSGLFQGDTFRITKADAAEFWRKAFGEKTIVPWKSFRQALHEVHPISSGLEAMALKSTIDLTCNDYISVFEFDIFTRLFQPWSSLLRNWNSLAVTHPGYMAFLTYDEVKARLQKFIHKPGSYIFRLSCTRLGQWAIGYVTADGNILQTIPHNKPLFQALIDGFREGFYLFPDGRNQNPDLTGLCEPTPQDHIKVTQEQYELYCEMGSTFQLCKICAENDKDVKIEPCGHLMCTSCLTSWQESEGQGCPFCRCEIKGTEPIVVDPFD
Procedure, shortened: (§1)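 SPR kinetics at 10° C, run either single-cycle (0.001–1 μM, 3-fold, 6 points, 120 s on, >5400 s off) or multi-cycle (10 points, 2-fold, top 10 or 100 μM, 90 s on). Proteins were N-biotinylated CBL-B (36-427) and C-CBL (46-435) on SA surfaces, in pH 7.2 HEPES, 2% DMSO.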

WT CBL-B (36-427) = molecular target: T2, WT CBL-B (36-427) (Homo sapiens, UniProt Q13191); assay: Surface Plasmon Resonance (SPR) assay, binding affinity and kinetics, CBL-B; details: SPR at 10° C., biotinylated WT CBL-B (36-427) on streptavidin chip; geometric mean; read-out: CBL-B SPR Kd (nM) GMean
T2 construct: N-terminal biotinylated WT CBL-B (36-427) and C-CBL (46-435) were captured on a streptavidin (SA) coated sensor chip
Procedure, shortened: as §1

CBL-B (residues 36-427) = molecular target: T3, CBL-B (residues 36-427) (Homo sapiens, UniProt Q13191); assay: Ligand Displacement Assay (LDA), HTRF competitive binding against BODIPY-labeled fluorescent tracer, CBL-B; details: geometric mean of the number of tests, read-out: CBL-B Ki (nM) GMean
T3 construct: Purified CBL-B (residues 36-427) and C-CBL (residues 46-435) proteins from baculovirus-infected insect cells; made in house; host or cells: baculovirus-infected insect cells
Procedure, shortened: (§2)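 Terbium-streptavidin donor on BirA-biotinylated, AviTagged protein from baculovirus-infected insect cells; BODIPY tracer as acceptor. Compound titrations were three-fold and duplicated, […] with 2% DMSO final.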

C-CBL (residues 46-435) = molecular target: T4, C-CBL (residues 46-435) (Homo sapiens, UniProt P22681); assay: Ligand Displacement Assay (LDA), HTRF competitive binding against BODIPY-labeled fluorescent tracer, C-CBL; details: geometric mean of the number of tests, read-out: C-CBL Ki (nM) GMean
T4 construct: Purified CBL-B (residues 36-427) and C-CBL (residues 46-435) proteins from baculovirus-infected insect cells; made in house; host or cells: baculovirus-infected insect cells
T4 sequence (P22681 46-435): T1 sequence (P22681 46-435)
Procedure, shortened: as §2

| SMILES | Kd (C-CBL (46-435)) [nM] | Kd (WT CBL-B (36-427)) [nM] | Ki (CBL-B (residues 36-427)) [nM] | Ki (C-CBL (residues 46-435)) [nM] |
| --- | --- | --- | --- | --- |
| Cn1cnnc1CC1(c2cccc(-c3n[nH]c4c(CNC5CC(F)(F)C5)nc(C(F)(F)F)cc34)c2)COC1 [Example C78, 3,3-difluoro-N-{[3-(3-{3-[(4-methyl-4H-1,2,4-triazol-3-yl)methyl]oxetan-3-yl}phenyl)-5-(trifluoromethyl)-1H-pyrazolo[3,4-c]pyridin-7-yl]methyl}cyclobutan-1-amine] | 144 | 10 | 56.6 | 253 |
| CNCc1nc(C(F)(F)F)cc2c(-c3cccc([C@H](c4nncn4C)C4CCC4)c3)n[nH]c12 [Example C103, 1-[3-{3-[(R)-cyclobutyl(4-methyl-4H-1,2,4-triazol-3-yl)methyl]phenyl}-5-(trifluoromethyl)-1H-pyrazolo[3,4-c]pyridin-7-yl]-N-methylmethanamine] | 349 | 20.5 | 46 | 389 |
| Cn1cnnc1[C@@H](c1cccc(-c2n[nH]c3c(CN[C@@H]4CCOC4)nc(C(F)(F)F)cc23)c1)C1CCC1 [Example C104, (3R)-N-{[3-{3-[(R)-cyclobutyl(4-methyl-4H-1,2,4-triazol-3-yl)methyl]phenyl}-5-(trifluoromethyl)-1H-pyrazolo[3,4-c]pyridin-7-yl]methyl}oxolan-3-amine] | 328 | 8.2 | 28 | 218 |
| Cn1cnnc1[C@@H](c1cccc(-c2n[nH]c3c(CNC4CCC4)nc(C(F)(F)F)cc23)c1)C1CCC1 [Example C105, N-{[3-{3-[(R)-cyclobutyl(4-methyl-4H-1,2,4-triazol-3-yl)methyl]phenyl}-5-(trifluoromethyl)-1H-pyrazolo[3,4-c]pyridin-7-yl]methyl}cyclobutanamine] | 132 | 4.2 | 29.4 | 244 |
| Cn1cnnc1[C@@H](c1cccc(-c2n[nH]c3c(CN4CC(F)C4)nc(C(F)(F)F)cc23)c1)C1CCC1 [Example C106, 3-{3-[(R)-cyclobutyl(4-methyl-4H-1,2,4-triazol-3-yl)methyl]phenyl}-7-[(3-fluoroazetidin-1-yl)methyl]-5-(trifluoromethyl)-1H-pyrazolo[3,4-c]pyridine] | 265 | 5.9 | 41.6 | 475 |
| Cn1cnnc1[C@@H](c1cccc(-c2n[nH]c3c(CN4C[C@@H](F)[C@@H](F)C4)nc(C(F)(F)F)cc23)c1)C1CCC1 [Example C107, 3-{3-[(R)-cyclobutyl(4-methyl-4H-1,2,4-triazol-3-yl)methyl]phenyl}-7-{[(3R,4S)-3,4-difluoropyrrolidin-1-yl]methyl}-5-(trifluoromethyl)-1H-pyrazolo[3,4-c]pyridine] | 158 | 3.7 | 33.9 | 363 |
| C[C@@H]1CCCN(Cc2nc(C(F)(F)F)cc3c(-c4cccc([C@H](c5nncn5C)C5CCC5)c4)n[nH]c23)C1 [Example C108, 3-{3-[(R)-cyclobutyl(4-methyl-4H-1,2,4-triazol-3-yl)methyl]phenyl}-7-{[(3R)-3-methylpiperidin-1-yl]methyl}-5-(trifluoromethyl)-1H-pyrazolo[3,4-c]pyridine] | 148 | 5.5 | 79.4 | 630 |
| Cn1cnnc1[C@@H](c1cccc(-c2n[nH]c3c(CN4CC[C@@H](F)C4)nc(C(F)(F)F)cc23)c1)C1CCC1 [Example C109, 3-{3-[(R)-cyclobutyl(4-methyl-4H-1,2,4-triazol-3-yl)methyl]phenyl}-7-{[(3R)-3-fluoropyrrolidin-1-yl]methyl}-5-(trifluoromethyl)-1H-pyrazolo[3,4-c]pyridine] | 174 | 8.8 | 48.8 | 442 |
| Cn1cnnc1[C@@H](c1cccc(-c2n[nH]c3c(CN4CC[C@H](F)C4)nc(C(F)(F)F)cc23)c1)C1CCC1 [Example C110, 3-{3-[(R)-cyclobutyl(4-methyl-4H-1,2,4-triazol-3-yl)methyl]phenyl}-7-{[(3S)-3-fluoropyrrolidin-1-yl]methyl}-5-(trifluoromethyl)-1H-pyrazolo[3,4-c]pyridine] | 300 | 6.4 | 50 | 464 |
| Cn1cnnc1[C@@H](c1cccc(-c2n[nH]c3c(CN4C[C@@H](F)[C@H](F)C4)nc(C(F)(F)F)cc23)c1)C1CCC1 [Example C111, 3-{3-[(R)-cyclobutyl(4-methyl-4H-1,2,4-triazol-3-yl)methyl]phenyl}-7-{[(3R,4R)-3,4-difluoropyrrolidin-1-yl]methyl}-5-(trifluoromethyl)-1H-pyrazolo[3,4-c]pyridine] | 282 | 3.3 | 26.9 | 313 |
| Cn1cnnc1[C@@H](c1cccc(-c2n[nH]c3c(CN4CCNC(=O)C4)nc(C(F)(F)F)cc23)c1)C1CCC1 [Example C112, 4-{[3-{3-[(R)-cyclobutyl(4-methyl-4H-1,2,4-triazol-3-yl)methyl]phenyl}-5-(trifluoromethyl)-1H-pyrazolo[3,4-c]pyridin-7-yl]methyl}piperazin-2-one] | 82.1 | 3 | 15.4 | 114 |
| C[C@@H]1CN(Cc2nc(C(F)(F)F)cc3c(-c4cccc([C@H](c5nncn5C)C5CCC5)c4)n[nH]c23)CCO1 [Example C113, 3-{3-[(R)-cyclobutyl(4-methyl-4H-1,2,4-triazol-3-yl)methyl]phenyl}-7-{[(2R)-2-methylmorpholin-4-yl]methyl}-5-(trifluoromethyl)-1H-pyrazolo[3,4-c]pyridine] | 83.6 | 4.8 | 27.1 | 233 |
| Cn1cnnc1[C@@H](c1cccc(-c2n[nH]c3c(CN4CCC(F)(F)C4)nc(C(F)(F)F)cc23)c1)C1CCC1 [Example C114, 3-{3-[(R)-cyclobutyl(4-methyl-4H-1,2,4-triazol-3-yl)methyl]phenyl}-7-[(3,3-difluoropyrrolidin-1-yl)methyl]-5-(trifluoromethyl)-1H-pyrazolo[3,4-c]pyridine] | 278 | 10.8 | 87.9 | 1070 |
| Cn1cnnc1[C@@H](c1cccc(-c2n[nH]c3c(CN4CC(F)(F)C4)nc(C(F)(F)F)cc23)c1)C1CCC1 [Example C115, 3-{3-[(R)-cyclobutyl(4-methyl-4H-1,2,4-triazol-3-yl)methyl]phenyl}-7-[(3,3-difluoroazetidin-1-yl)methyl]-5-(trifluoromethyl)-1H-pyrazolo[3,4-c]pyridine] | 195 | 9.2 | 73.8 | 1020 |
| Cn1cnnc1[C@@H](c1cccc(-c2n[nH]c3c(CN[C@H]4C[C@H](O)C4)nc(C(F)(F)F)cc23)c1)C1CCC1 [Example C119, (1r,3r)-3-({[3-{3-[(R)-cyclobutyl(4-methyl-4H-1,2,4-triazol-3-yl)methyl]phenyl}-5-(trifluoromethyl)-1H-pyrazolo[3,4-c]pyridin-7-yl]methyl}amino)cyclobutan-1-ol] | 254 | 21.9 | 28.7 | 220 |
| Cn1cnnc1[C@@H](c1cccc(-c2n[nH]c3c(CN[C@H]4C[C@@H](O)C4)nc(C(F)(F)F)cc23)c1)C1CCC1 [Example C120, (1s,3s)-3-({[3-{3-[(R)-cyclobutyl(4-methyl-4H-1,2,4-triazol-3-yl)methyl]phenyl}-5-(trifluoromethyl)-1H-pyrazolo[3,4-c]pyridin-7-yl]methyl}amino)cyclobutan-1-ol] | 156 | 11.1 | 13.6 | 105 |
| Cn1cnnc1[C@@H](c1cccc(-c2n[nH]c3c(CN[C@@H]4CCC[C@H]4O)nc(C(F)(F)F)cc23)c1)C1CCC1 [Example C121, (1R,2R)-2-({[3-{3-[(R)-cyclobutyl(4-methyl-4H-1,2,4-triazol-3-yl)methyl]phenyl}-5-(trifluoromethyl)-1H-pyrazolo[3,4-c]pyridin-7-yl]methyl}amino)cyclopentan-1-ol] | 113 | 3.3 | 18.9 | 111 |

Reference: patent US20260125375A1 (Pfizer Inc., priority 2022, published 2026)
